The source of these data is PMC10766964, “Copper-catalyzed synthesis of pyrazolo[1,5-a]pyrimidine based triazole-linked glycohybrids: mechanistic insights and bio-applications” (Scientific Reports, 2024).

By viability is commonly meant a read-out of living cells in per cent, often relative to untreated cells.

The experiment concerns MDA-MB-453 (HER2 positive breast cancer cells). Description: MTT cell viability assay in MDA-MB-453 cells. In kind it is cell-based, human. As to conditions: for viability at 1 µM / viability at 10 µM / viability at 25 µM: Homo sapiens, read-out: Cell viability (%) ± SD; for viability at 1 µM: MDA-MB-453, 1 µM; for viability at 10 µM: MDA-MB-453, 10 µM; for viability at 25 µM: MDA-MB-453, 25 µM; for IC50 value against MDA-MB-453 cells (in words): tested at 1 µM, 10 µM and 25 µM. Here is the method:
MDA-MB-231 represents a specific subtype known as triple-negative breast cancer (TNBC). The investigation study was extended with active six hit compounds (9a, 9d, 9h, 10d, 10f, and 11g) in two other different cancer cell lines (MCF-7 and MDA-MB-453), each representing a separate class of breast cancers (MCF-7: hormone receptor/HR-positive; MDA-MB-453: human epidermal growth factor 2 receptor/HER2 positive). […] We also included normal mammary epithelial MCF-10A cells in our experiments to confirm if the growth-inhibitory activities of the selected compounds are truly cancer cell-specific. The activity data from MCF-7 and MDA-MB-453 cell lines (tested at 1 µM, 10 µM and 25 µM) and activity data from MCF-10A cell line (tested at 25 µM, 50 µM and 100 µM) are summarized in Table 3. To evaluate cell viability, the MTT assay was conducted following standard procedures. After 72 h of cell incubation with or without each compound, cell viability was assessed using MTT (3-(4,5-dimethylthiazol-2-yl)-2,5-diphenyltetrazolium bromide), which is a colorimetric method for determining the number of viable cells in various assays including proliferation, cytotoxicity, or chemosensitivity. The MTT reagent was added to the cells after removal of the medium and incubated for 3 h at 37 °C in the CO2 incubator. The formazan product, which is […] in the tissue culture medium, was dissolved in DMSO, and the absorbance of the formazan product was directly measured at 595 nm using a multimode plate reader without additional processing. The absorbance values are directly proportional to the number of viable cells in culture. The percentage of viable cells in each group was determined relative to the untreated control cells.
Background: Tetrazolium assays rely on reduction of a dye to a coloured formazan, in cell work by metabolically active cells.

As to `CC(=O)OC[C@H]1O[C@@H](n2cc(COc3cc(-c4ccc(C(F)(F)F)cc4)nc4ccnn34)nn2)[C@H](OC(C)=O)[C@@H](OC(C)=O)[C@H]1OC(C)=O` [Compound 10f, (2R,3S,4S,5R,6R)-2-(acetoxymethyl)-6-(4-(((5-(4-(trifluoromethyl)phenyl)pyrazolo[1,5-a]pyrimidin-7-yl)oxy)methyl)-1H-1,2,3-triazol-1-yl)tetrahydro-2H-pyran-3,4,5-triyl triacetate], the viability at 1 µM amounted to 92.5 ± 4.6%, the viability at 10 µM came out at 80.9 ± 1.2%, the viability at 25 µM was found to be 66.8 ± 1.7% and the “IC50 value against MDA-MB-453 cells (in words)” value (shortened to “IC50 value”) is “did not reach up to IC50 value”.
In the case of `CC(=O)OC[C@H]1O[C@@H](n2cc(COc3cc(-c4ccc(Cl)cc4)nc4ccnn34)nn2)[C@H](OC(C)=O)[C@@H](OC(C)=O)[C@H]1OC(C)=O` [Compound 10d, (2R,3S,4S,5R,6R)-2-(acetoxymethyl)-6-(4-(((5-(4-chlorophenyl)pyrazolo[1,5-a]pyrimidin-7-yl)oxy)methyl)-1H-1,2,3-triazol-1-yl)tetrahydro-2H-pyran-3,4,5-triyl triacetate], the viability at 1 µM was determined as 88.8 ± 5.2%, the viability at 10 µM was determined as 78.3 ± 4.7%, the viability at 25 µM is 69.6 ± 5.3% and the “IC50 value” value was “did not reach up to IC50 value”.
Taken in the same sequence, the figures for `CC(=O)OC[C@H]1O[C@@H](n2cc(COc3cc(-c4ccc5ccccc5c4)nc4ccnn34)nn2)[C@H](OC(C)=O)[C@@H](OC(C)=O)[C@@H]1OC(C)=O` [Compound 9h, (2R,3R,4S,5R,6R)-2-(acetoxymethyl)-6-(4-(((5-(naphthalen-2-yl)pyrazolo[1,5-a]pyrimidin-7-yl)oxy)methyl)-1H-1,2,3-triazol-1-yl)tetrahydro-2H-pyran-3,4,5-triyl triacetate] were 105 ± 8.1%, 74.8 ± 1.5%, 66.4 ± 3.2% and “did not reach up to IC50 value”.
For `CC(=O)OC[C@H]1O[C@H](n2cc(COc3cc(-c4ccc(C(C)C)cc4)nc4ccnn34)nn2)[C@@H](OC(C)=O)[C@@H](OC(C)=O)[C@@H]1OC(C)=O` [Compound 11g, (2R,3R,4S,5S,6S)-2-(acetoxymethyl)-6-(4-(((5-(4-isopropylphenyl)pyrazolo[1,5-a]pyrimidin-7-yl)oxy)methyl)-1H-1,2,3-triazol-1-yl)tetrahydro-2H-pyran-3,4,5-triyl triacetate], in that order: 95.4 ± 4.8%, 76.4 ± 5.4%, 96.1 ± 35.7% and “did not reach up to IC50 value”.
Taken in the same sequence, the figures for `CC(=O)OC[C@H]1O[C@@H](n2cc(COc3cc(-c4ccc(Cl)cc4)nc4ccnn34)nn2)[C@H](OC(C)=O)[C@@H](OC(C)=O)[C@@H]1OC(C)=O` [Compound 9d, (2R,3R,4S,5R,6R)-2-(acetoxymethyl)-6-(4-(((5-(4-chlorophenyl)pyrazolo[1,5-a]pyrimidin-7-yl)oxy)methyl)-1H-1,2,3-triazol-1-yl)tetrahydro-2H-pyran-3,4,5-triyl triacetate] were 80.8 ± 3.2%, 82.2 ± 11.5%, 65.3 ± 5.8% and “did not reach up to IC50 value”.
Take `CC(=O)OC[C@H]1O[C@@H](n2cc(COc3cc(-c4ccc(C)cc4)nc4ccnn34)nn2)[C@H](OC(C)=O)[C@@H](OC(C)=O)[C@@H]1OC(C)=O` [Compound 9a, (2R,3R,4S,5R,6R)-2-(acetoxymethyl)-6-(4-(((5-(p-tolyl)pyrazolo[1,5-a]pyrimidin-7-yl)oxy)methyl)-1H-1,2,3-triazol-1-yl)tetrahydro-2H-pyran-3,4,5-triyl triacetate]: the viability at 1 µM was 80.6 ± 8%, the viability at 10 µM worked out at 86.4 ± 5.4%, the viability at 25 µM amounted to 78.1 ± 5.7% and the “IC50 value” value is recorded as “did not reach up to IC50 value”.
